Results: ChEMBL document CHEMBL5104192, “Late-Stage Functionalization with Cysteine Staples Generates Potent and Selective Melanocortin Receptor-1 Agonists” (J Med Chem, 2022)

Columns and labels:
[1] = molecular target: T1, Melanocyte-stimulating hormone receptor (Homo sapiens, UniProt Q01726); assay: Displacement of [125I]-NDP-alpha-MSH from human MC1R expressed in HEK2936E cell membrane measured after 16 to 23 hrs by 1450 microbeta trilux scintillation proximity assay; type: cell membranes; conditions: hek2936e
Melanocortin receptor 3 [2] = molecular target: T2, Melanocortin receptor 3 (Homo sapiens, UniProt P41968); assay: Displacement of [125I]-NDP-alpha-MSH from human MC3R expressed in HEK2936E cell membrane measured after 16 to 23 hrs by 1450 microbeta trilux scintillation proximity assay; type: cell membranes; conditions: hek2936e
Melanocortin receptor 4 [3] = molecular target: T3, Melanocortin receptor 4 (Homo sapiens, UniProt P32245); assay: Displacement of [125I]-NDP-alpha-MSH from human MC4R expressed in HEK2936E cell membrane measured after 16 to 23 hrs by 1450 microbeta trilux scintillation proximity assay; type: cell membranes; conditions: hek2936e
[4] = molecular target: T1, Melanocyte-stimulating hormone receptor; assay: Agonist activity at human MC1R expressed in HEK2936E cells assessed as cAMP production in presence of IBMX by time resolved fluorescence assay; type: functional, cell-based; conditions: hek2936e
Melanocortin receptor 3 [5] = molecular target: T2, Melanocortin receptor 3; assay: Agonist activity at human MC3R expressed in HEK2936E cells assessed as cAMP production in presence of IBMX by time resolved fluorescence assay; type: functional, cell-based; conditions: hek2936e
Melanocortin receptor 4 [6] = molecular target: T3, Melanocortin receptor 4; assay: Agonist activity at human MC4R expressed in HEK2936E cells assessed as cAMP production in presence of IBMX by time resolved fluorescence assay; type: functional, cell-based; conditions: hek2936e
Melanocortin receptor 5 = Melanocortin receptor 5 (Homo sapiens, UniProt P33032); assay: Agonist activity at human MC5R expressed in HEK2936E cells assessed as cAMP production in presence of IBMX by time resolved fluorescence assay; type: functional, cell-based
Homo sapiens [7] = species on record: Homo sapiens; assay: Selectivity ratio of Ki for human MC3R to Ki for human MC1R
Homo sapiens [8] = species on record: Homo sapiens; assay: Selectivity ratio of Ki for human MC4R to Ki for human MC1R
Homo sapiens [9] = species on record: Homo sapiens; assay: Selectivity ratio of EC50 for human MC3R to EC50 for human MC1R
Homo sapiens [10] = species on record: Homo sapiens; assay: Selectivity ratio of EC50 for human MC4R to EC50 for human MC1R

T1 sequence (Q01726 whole entry): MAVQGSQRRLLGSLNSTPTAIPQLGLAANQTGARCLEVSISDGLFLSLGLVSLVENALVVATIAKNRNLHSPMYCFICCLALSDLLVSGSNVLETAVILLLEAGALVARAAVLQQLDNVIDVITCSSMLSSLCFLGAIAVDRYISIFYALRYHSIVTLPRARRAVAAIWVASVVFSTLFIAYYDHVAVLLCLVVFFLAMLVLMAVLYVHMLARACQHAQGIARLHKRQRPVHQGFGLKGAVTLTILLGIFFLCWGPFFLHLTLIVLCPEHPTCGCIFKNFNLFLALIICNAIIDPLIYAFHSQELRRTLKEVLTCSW
Chain of Melanocortin receptor 5 (P33032 whole entry): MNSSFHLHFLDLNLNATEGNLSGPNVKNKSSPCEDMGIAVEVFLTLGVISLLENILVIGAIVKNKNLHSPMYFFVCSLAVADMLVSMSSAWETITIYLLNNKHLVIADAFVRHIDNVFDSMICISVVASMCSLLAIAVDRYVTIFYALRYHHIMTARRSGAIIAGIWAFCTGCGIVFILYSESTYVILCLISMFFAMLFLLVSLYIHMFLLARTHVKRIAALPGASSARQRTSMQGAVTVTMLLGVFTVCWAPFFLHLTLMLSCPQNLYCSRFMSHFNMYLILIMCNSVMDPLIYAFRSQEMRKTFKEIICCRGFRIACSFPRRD
T3 sequence (P32245 whole entry): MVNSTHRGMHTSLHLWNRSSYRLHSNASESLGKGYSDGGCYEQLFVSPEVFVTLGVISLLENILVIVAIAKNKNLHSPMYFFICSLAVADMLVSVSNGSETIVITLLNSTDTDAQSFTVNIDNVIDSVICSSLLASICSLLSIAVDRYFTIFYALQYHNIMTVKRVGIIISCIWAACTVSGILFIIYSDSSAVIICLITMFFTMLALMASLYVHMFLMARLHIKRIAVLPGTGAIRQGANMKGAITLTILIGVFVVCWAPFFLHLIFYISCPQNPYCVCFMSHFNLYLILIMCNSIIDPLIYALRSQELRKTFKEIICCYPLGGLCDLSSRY
T2 sequence (P41968 whole entry): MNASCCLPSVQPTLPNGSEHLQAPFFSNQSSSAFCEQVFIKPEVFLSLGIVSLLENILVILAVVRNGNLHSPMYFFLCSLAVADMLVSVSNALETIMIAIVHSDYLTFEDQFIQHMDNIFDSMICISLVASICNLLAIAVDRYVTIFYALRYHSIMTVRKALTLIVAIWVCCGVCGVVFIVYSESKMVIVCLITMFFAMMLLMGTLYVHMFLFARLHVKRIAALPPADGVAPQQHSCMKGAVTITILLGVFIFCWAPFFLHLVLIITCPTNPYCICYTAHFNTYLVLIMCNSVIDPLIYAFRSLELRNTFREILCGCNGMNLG

| SMILES | pKi [1] | pKi (Melanocortin receptor 3 [2]) | pKi (Melanocortin receptor 4 [3]) | pEC50 [4] | pEC50 (Melanocortin receptor 3 [5]) | pEC50 (Melanocortin receptor 4 [6]) | pEC50 (Melanocortin receptor 5) | Ratio Ki (Homo sapiens [7]) | Ratio Ki (Homo sapiens [8]) | Ratio EC50 (Homo sapiens [9]) | Ratio EC50 (Homo sapiens [10]) |
| --- | --- | --- | --- | --- | --- | --- | --- | --- | --- | --- | --- |
| CC[C@H](C)[C@@H]1NC(=O)[C@@H]2CCCN2C(=O)[C@H](Cc2c[nH]c3ccccc23)NC(=O)[C@H](CCCNC(=N)N)N(C)C(=O)[C@H](Cc2ccccc2)NC(=O)[C@H](Cc2cnc[nH]2)NC(=O)[C@H]([C@@H](C)O)NC(=O)[C@H](NC(C)=O)CCSCc2ccccc2CSCC[C@H](C(N)=O)NC1=O | 7.16 | 4.88 | 5.93 | 8.67 | 6.34 | 6.74 | 4.82 | 191 | 17 | 214 | 85 |
| CC[C@H](C)[C@@H]1NC(=O)[C@@H]2CCCN2C(=O)[C@H](Cc2c[nH]c3ccccc23)NC(=O)[C@H](CCCNC(=N)N)N(C)C(=O)[C@H](Cc2ccccc2)NC(=O)[C@H](Cc2cnc[nH]2)NC(=O)[C@H]([C@@H](C)O)NC(=O)[C@H](NC(C)=O)CCSCc2ccc(cc2)CSCC[C@H](C(N)=O)NC1=O | 7 | 4.89 | – | 8.4 | 6.3 | – | 4.71 | – | – | – | – |
| CC[C@H](C)[C@@H]1NC(=O)[C@@H]2CCCN2C(=O)[C@H](Cc2c[nH]c3ccccc23)NC(=O)[C@H](CCCNC(=N)N)N(C)C(=O)[C@H](Cc2ccccc2)NC(=O)[C@H](Cc2cnc[nH]2)NC(=O)[C@H]([C@@H](C)O)NC(=O)[C@H](NC(C)=O)CCSCc2cccc(c2)CSCC[C@H](C(N)=O)NC1=O | 7.31 | 5.08 | 6.34 | 8.79 | 6.42 | 6.72 | 4.78 | 170 | 9 | 219 | 110 |
| CC[C@H](C)[C@@H]1NC(=O)[C@@H]2CCCN2C(=O)[C@H](Cc2c[nH]c3ccccc23)NC(=O)[C@H](CCCNC(=N)N)N(C)C(=O)[C@H](Cc2ccccc2)NC(=O)[C@H](Cc2cnc[nH]2)NC(=O)[C@H]([C@@H](C)O)NC(=O)[C@H](NC(C)=O)CCSSCC[C@H](C(N)=O)NC1=O | 7.24 | 5.2 | 6.53 | 8.32 | 6.72 | 7.32 | 5.38 | 110 | 5 | 40 | 10 |
